Assay results reported in ChEMBL document CHEMBL1201862, “PubChem BioAssay data set” (2004).
“And” between values parts separate entries of the source, which are not always exact repeats. Identical values can stand only once.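 Dose response: 5 concentrations. Exposure: 48 h. Format: 96-well plates. Endpoint: linear interpolation; highest concentration if not reached. GI50 = concentration required for 50% inhibition of growth.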 The source made the active and inactive calls. Cut-off read from the data, not from the text of the source: active = GI50 up to about 1.1 µM and inactive = higher. Where a SMILES comes first, the peptide text is derived from it. [ ]: non-standard residue; d: D form. The star is where a group is joined. Iva = CC[C](C)(N)C(=O)O; Boc = CC(C)(C)OC(=O)*; X54 = C1CCC(=NO*)C1

How the values were obtained:
Assay in all cases: DTP human tumour cell line panel, 48 h
A498 = test system: A498
CAKI-1 = test system: CAKI-1
HCT-116 = test system: HCT-116
HL-60 = test system: HL-60
HOP-62 = test system: HOP-62
IGROV-1 = test system: IGROV-1
MCF7 = test system: MCF7
Malme-3M = test system: Malme-3M
NCI-H460 = test system: NCI-H460
OVCAR-3 = test system: OVCAR-3
OVCAR-8 = test system: OVCAR-8
SF-268 = test system: SF-268
SF-539 = test system: SF-539
SK-MEL-28 = test system: SK-MEL-28
SK-MEL-2 = test system: SK-MEL-2
SW-620 = test system: SW-620
UACC-257 = test system: UACC-257
M14 = test system: M14
SR = test system: SR
TK-10 = test system: TK-10

Measured: GI50

CC(C(=O)O)c1cnn(-c2ccccc2)c1-n1cccc1 (configuration not stated)
inactive: A498 > 100 µM | CAKI-1 > 100 µM | HCT-116 > 100 µM | HL-60 > 100 µM | HOP-62 > 100 µM | IGROV-1 > 100 µM | MCF7 > 100 µM | Malme-3M > 100 µM | NCI-H460 > 100 µM | OVCAR-3 > 63.7 µM | OVCAR-8 > 100 µM | SF-268 > 100 µM | SF-539 > 100 µM | SK-MEL-28 > 100 µM | SK-MEL-2 > 100 µM | SW-620 > 63 µM | UACC-257 > 100 µM

CC(Oc1ccc(Oc2cnc3ccc(Cl)cc3n2)cc1)C(=O)O (configuration not stated)
inactive: A498 > 80.4 µM | CAKI-1 > 100 µM | HCT-116 88.7 µM | HL-60 > 100 µM | HOP-62 > 99.3 µM | IGROV-1 37.4 µM and 47.4 µM | M14 > 100 µM | MCF7 37.3 µM and 84.3 µM | Malme-3M 79.3 µM | NCI-H460 60.4 µM and 19.6 µM | OVCAR-3 > 100 µM | OVCAR-8 > 82.4 µM | SF-268 89.7 µM | SF-539 > 100 µM | SK-MEL-2 > 100 µM | SR > 44.5 µM | SW-620 > 99.8 µM | TK-10 > 100 µM

COc1ccc(-c2c3c(nc4nc(SCC(=O)c5ccc(Br)cc5)nc(N)c24)CCCC3)cc1OC
inactive: CAKI-1 79.6 µM | HCT-116 > 100 µM | HL-60 90.6 µM | HOP-62 58.6 µM | IGROV-1 > 100 µM | M14 41.9 µM | MCF7 > 100 µM | Malme-3M 42.6 µM | NCI-H460 > 100 µM | OVCAR-3 > 100 µM | OVCAR-8 33.5 µM | SF-268 71.9 µM | SF-539 > 100 µM | SK-MEL-28 64 µM | SR > 100 µM | SW-620 74.5 µM | TK-10 > 100 µM | UACC-257 > 100 µM

C/C(=N/NC(=O)c1ccncc1)C(F)(F)F
inactive: A498 > 100 µM | CAKI-1 > 100 µM | HCT-116 > 100 µM | HL-60 > 100 µM | HOP-62 > 100 µM | IGROV-1 > 100 µM | M14 > 100 µM | MCF7 > 100 µM | Malme-3M > 100 µM | NCI-H460 > 10 µM | OVCAR-3 > 100 µM | OVCAR-8 > 100 µM | SK-MEL-28 > 100 µM | SK-MEL-2 > 100 µM | SR > 100 µM | TK-10 > 100 µM

NC(Cc1ccccc1CP(=O)(O)O)C(=O)O (configuration not stated)
inactive: CAKI-1 > 100 µM | HCT-116 > 100 µM | HL-60 > 100 µM | IGROV-1 > 100 µM | M14 > 100 µM | MCF7 > 100 µM | NCI-H460 > 100 µM | OVCAR-3 > 100 µM | OVCAR-8 > 100 µM | SF-268 > 100 µM | SF-539 > 100 µM | SK-MEL-28 > 100 µM | SK-MEL-2 > 100 µM | SR > 100 µM | SW-620 > 100 µM | TK-10 > 100 µM | UACC-257 > 100 µM

C[C@@H]1C[C@]2(C[C@@H](C)[C@H]3C(C[C@@]4(C)CCC[C@@H]5C6=C[C@H](CCC34C)OC6=CC(=O)OC5(C)C)O2)OC1=O (some centres not stated)
inactive: A498 > 51.5 µM | CAKI-1 > 51.5 µM | HL-60 > 51.5 µM | HOP-62 > 51.5 µM | IGROV-1 > 51.5 µM | MCF7 > 51.5 µM | NCI-H460 > 51.5 µM | OVCAR-3 > 51.5 µM | OVCAR-8 > 51.5 µM | SF-539 > 51.5 µM | SK-MEL-2 > 51.5 µM | SW-620 > 51.5 µM | UACC-257 > 51.5 µM

CC1=NN(C(=O)c2ccc(C)cc2)C(=O)C1/N=N/c1ccccc1C(=O)O (configuration not stated)
inactive: CAKI-1 > 100 µM | HCT-116 > 100 µM | HL-60 > 62.7 µM | HOP-62 > 100 µM | IGROV-1 > 100 µM | MCF7 > 100 µM | Malme-3M > 100 µM | NCI-H460 > 100 µM | OVCAR-3 > 89.1 µM | OVCAR-8 > 74.5 µM | SF-268 > 100 µM | SF-539 > 100 µM | SK-MEL-28 > 100 µM | SK-MEL-2 > 100 µM | SW-620 > 100 µM | UACC-257 > 100 µM

COC(=O)/C=C\Sc1ccn(/C=C\C(=O)OC)c(=S)n1
inactive: A498 20.2 µM | CAKI-1 16.6 µM | HL-60 > 100 µM | HOP-62 17.1 µM | IGROV-1 16.9 µM | M14 49.9 µM | MCF7 14.3 µM | Malme-3M 22.4 µM | NCI-H460 > 10 µM | OVCAR-3 13.8 µM | OVCAR-8 19.2 µM | SF-268 24.4 µM | SF-539 18.4 µM | SK-MEL-28 29.9 µM | SK-MEL-2 19.9 µM | SR 13.7 µM | SW-620 26 µM | TK-10 27.9 µM | UACC-257 28.6 µM

COc1cc(C(O)(CC#N)c2cc3c(cc2Br)OCO3)cc(OC)c1OC (configuration not stated)
inactive: CAKI-1 29.1 µM | HCT-116 40.6 µM | HOP-62 1.63 µM | IGROV-1 20.9 µM | M14 4.62 µM | MCF7 14.7 µM | NCI-H460 18.8 µM | OVCAR-3 18 µM | OVCAR-8 44.9 µM | SF-268 28.2 µM | SF-539 8.05 µM | SK-MEL-28 23.4 µM | SK-MEL-2 47 µM | SW-620 40.3 µM | TK-10 42.8 µM | UACC-257 27.9 µM

CCC(C)(NC(=O)C(C)NC(=O)OC(C)(C)C)C(=O)NC(C)C(=O)NC(C)(CC)C(=O)ON=C1CCCC1 (configuration not stated) (Boc-A[Iva]A[Iva]-X54; configuration not given here)
inactive: A498 > 100 µM | CAKI-1 > 100 µM | HCT-116 > 100 µM | HL-60 > 100 µM | HOP-62 > 100 µM | IGROV-1 > 100 µM | M14 > 100 µM | MCF7 > 100 µM | Malme-3M > 100 µM | NCI-H460 > 100 µM | OVCAR-3 > 100 µM | OVCAR-8 > 100 µM | SK-MEL-28 > 100 µM | SK-MEL-2 > 100 µM | SR > 100 µM

COc1ncnc2c(Cl)c(C(O)c3ccccc3)c(Cl)cc12 (configuration not stated)
inactive: A498 19.7 µM | CAKI-1 34.7 µM | HCT-116 17.9 µM | HL-60 27.5 µM | HOP-62 15.2 µM | IGROV-1 29.3 µM | M14 23.9 µM | MCF7 31.4 µM | Malme-3M 34.6 µM | NCI-H460 30.8 µM | OVCAR-3 43.8 µM | OVCAR-8 30.5 µM | SF-268 21 µM | SF-539 20.6 µM | SK-MEL-28 34.6 µM | SK-MEL-2 33.6 µM | SR 3.5 µM | SW-620 25.6 µM | TK-10 23 µM | UACC-257 > 100 µM

O=C1C(CO)=C[C@H](O)[C@H]2O[C@@H]12
inactive: A498 234 µM | CAKI-1 253 µM | HCT-116 104 µM | HL-60 78.3 µM | HOP-62 497 µM | IGROV-1 182 µM | MCF7 126 µM | Malme-3M 137 µM | NCI-H460 199 µM | OVCAR-3 177 µM | OVCAR-8 137 µM | SF-268 125 µM | SF-539 242 µM | SK-MEL-28 136 µM | SK-MEL-2 130 µM | SW-620 126 µM | UACC-257 158 µM
